Test results as given in patent publication US20090175838A1, “METHODS OF MODULATING IMMUNE FUNCTION” (priority 2007, published 2009).
No end group written: not given here. *: point of attachment. Biotin = O=C1N[C@H]2[C@H](CS[C@H]2CCCCC(=O)*)N1

Experiments:
[1] = tested on: cell surface CLIP on Raji or Daudi cells; experiment: MKN1 (bioCLIP) effect on cell surface CLIP level (flow cytometry); type: cell-based, human; settings: 24 and 48 hours
Description: (§1) The ability of MKN1 (bioCLIP) to alter cell surface CLIP and CD74 levels was determined using Raji or Daudi cells.
(§2) Data were analyzed by histogram with Y axis represents cell number of the 5000 live cells versus the X axis which is a reflection of relative FITC fluorescence with either antibodies to CLIP or CD74. The distance between the histogram from the isotype control staining versus the histogram reflecting the specific stain and is a measure of level of cell surface CLIP or CD74 when staining a population of live Raji or Daudi cells.
(§3) Cell Culture Conditions: The Raji and Daudi cell lines were purchased from American Type Culture Collection, were thawed, and grown in RPMI 1640 medium supplemented with standard supplements, including 10% fetal calf serum, gentamycin, penicillin, streptomycin, sodium pyruvate, HEPES buffer, 1-glutamine, and 2-ME.
(§4) Protocol: Cells were plated into a 12-well plate with 3 mls total volume containing approximately 0.5×10^6/mL for Daudi cells and 0.5×10^6/mL for Raji cells. […]
(§5) Harvested cells were stained using standard staining procedure that called for a 1:100 dilution of Fitc-anti-human CLIP or CD74 antibody (FITC, Pharmingen, Cat # 554647) or isotype control. […] Samples were acquired and analyzed on a Coulter Excel Flow Cytometer.

[2] = tested on: cell surface CD74 on Raji or Daudi cells; experiment: MKN1 (bioCLIP) effect on cell surface CD74 level (flow cytometry); type: cell-based, human; settings: 24 and 48 hours
Description: as §1, §2, §3, §4, §5

[3] = tested on: human B-cell lines, Raji and Daudi; experiment: Binding of biotinylated synthetic peptide to B-cell lines (Streptavidin-PE flow cytometry); type: cell-based; settings: 50 μM
Description: (§6) The ability of synthetic peptides to compete with binding of CLIP peptides and result in the cell surface expression of CD1d was determined.
(§7) Results: The results shown in FIG. 5 are expressed in histogram analyses. The Y axis represents cell number of the 5000 live cells versus the X axis which is a reflection of relative Fitc fluorescence versus Streptavidin-PE (eBioscience, Cat. #12-4317) that will bind with high affinity to cell-bound biotinylated peptides. The distance between the histogram from the isotype control staining versus the histogram reflecting the specific stain and is a measure of level of cell surface CD1d.
as §3
Protocol: Cells were plated into a 12 well plate with 3 mls total volume containing approximately 1.5×10^6/well for Daudi cells and 3.0×10^6/well for Raji cells. Treatment groups included no treatment as control and biotinylated […] (SEQ ID NO. 1) (also referred to as MKN 5) at 50 μM final concentration based on the reported molarity of the synthesized compounds. […]

[4] = tested on: cell surface CD1d on Raji and Daudi cells; experiment: Cell surface expression of CD1d after competing peptide (flow cytometry, anti-CD1d); type: cell-based, human; settings: 50 μM, both cell lines
Description: as §6, §7, §3
Protocol: Cells were plated into a 12 well plate with 3 mls total volume containing approximately 1.5×10^6/well for Daudi cells and 3.0×10^6/well for Raji cells. Treatment groups included no treatment as control and biotinylated […] […]
Harvested cells were stained using standard staining procedure that called for a 1:100 dilution of PE anti-CD1d. […] Samples were acquired and analyzed on a Coulter Excel Flow Cytometer.

Sequence of cell surface CLIP on Raji or Daudi cells (P04233 97-120): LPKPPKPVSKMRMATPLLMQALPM

| Substance | cell surface CLIP level [1] | cell surface CD74 level [2] | binding of biotinylated peptide to B-cell lines ([3]; 4 hours) | binding of biotinylated peptide to B-cell lines ([3]; 24 hours) | cell surface expression of CD1d ([4]; 4 hours) | cell surface expression of CD1d ([4]; 24 hours) |
| --- | --- | --- | --- | --- | --- | --- |
| SGG GSK MRM ATP LLM QAL Y (Biotin-SGGGSKMRMATPLLMQALY) [MKN1 (bioCLIP)] | alters cell surface CLIP and CD74 levels | alters cell surface CLIP and CD74 levels | – | – | – | – |
| FRIMAVLAS (also: biotin) | – | – | bound with high affinity | Less binding | marginally | slightly more |
